Laboratory results as given in patent publication US20260256733A1, “COMPOSITIONS AND METHODS FOR MODULATING STRESS AND USES THEREOF” (BRIGHTSEED, INC., priority 2023, published 2026).

Columns and labels:
mGlu2 [1] = target: T1, mGlu2 (Homo sapiens, UniProt Q14416); assay: Standardized bioassay protocol, mGluR2 antagonist/NAM assay; format: cell-based; conditions: for Activity Level: 20 μM, mGlu2 activity, control at 100%, greater than control indicates NAM or antagonist; for Bioactivity Class: assay performed at 20 μM
T1 sequence (Q14416 19-872): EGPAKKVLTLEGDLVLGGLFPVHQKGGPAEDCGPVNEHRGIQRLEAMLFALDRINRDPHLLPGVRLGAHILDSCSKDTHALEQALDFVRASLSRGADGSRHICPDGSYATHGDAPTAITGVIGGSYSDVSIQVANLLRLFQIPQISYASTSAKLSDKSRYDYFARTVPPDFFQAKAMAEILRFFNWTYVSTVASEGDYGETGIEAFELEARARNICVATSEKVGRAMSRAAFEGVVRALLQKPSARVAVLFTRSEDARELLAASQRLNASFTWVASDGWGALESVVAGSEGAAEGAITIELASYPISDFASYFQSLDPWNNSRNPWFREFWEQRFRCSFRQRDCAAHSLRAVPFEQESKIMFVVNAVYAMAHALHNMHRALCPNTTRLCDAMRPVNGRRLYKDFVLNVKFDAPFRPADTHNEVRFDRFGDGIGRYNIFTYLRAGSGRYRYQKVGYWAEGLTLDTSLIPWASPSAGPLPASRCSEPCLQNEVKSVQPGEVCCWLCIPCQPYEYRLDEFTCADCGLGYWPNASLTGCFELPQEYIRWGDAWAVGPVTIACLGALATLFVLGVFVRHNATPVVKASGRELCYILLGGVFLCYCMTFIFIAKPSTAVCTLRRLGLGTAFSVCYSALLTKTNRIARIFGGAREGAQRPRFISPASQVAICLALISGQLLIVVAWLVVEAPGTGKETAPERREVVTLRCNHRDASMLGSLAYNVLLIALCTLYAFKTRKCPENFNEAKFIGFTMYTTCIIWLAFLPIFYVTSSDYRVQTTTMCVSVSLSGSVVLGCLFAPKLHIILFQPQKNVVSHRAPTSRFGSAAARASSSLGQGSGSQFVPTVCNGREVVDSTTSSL
Procedure: (§1) A standardized bioassay protocol was followed as illustrated in FIG. 3. In the standardized bioassay protocol, an assay buffer of HBSS with 1% HEPES was used. Cells were seeded overnight at 10,000 cells/well in 20 μl plating reagent. Controls for the experiment were an agonist of L-glutamic acid (AC156212500), agonist of LY354740 (fisher part #: 32-465-0), antagonist of LY341495 (fisher part #: 12-095-0), PAM of BINA (fisher part #: 40-485-0), and NAM of (decoglurant (fisher part #: 50-203-0742).
(§2) The results are illustrated in Table 7 and FIGS. 4 and 5. FIG. 4 illustrates mGlu2 activity greater than control (dotted red line at 100%) is indicative of an mGlu2 negative allosteric modulator or antagonist. The assay was performed at 20 μM. FIG. 5 illustrates mGlu2 activity less than the control (at 100%) is indicative of a mGlu2 positive allosteric modulator or agonist. The assay was performed at 100 μM.

mGlu2 [2] = target: T1, mGlu2; assay: Standardized bioassay protocol, mGluR2 agonist/PAM assay; format: cell-based; conditions: for Activity Level: 100 μM, mGlu2 activity, control at 100%, less than control indicates PAM or agonist; for Bioactivity Class: assay performed at 100 μM
Procedure: as §1, §2

| SMILES | Activity Level (mGlu2 [1]) | Bioactivity Class (mGlu2 [1]) | Activity Level (mGlu2 [2]) | Bioactivity Class (mGlu2 [2]) |
| --- | --- | --- | --- | --- |
| O=C1c2cccc(O)c2C(=O)C2C(O)=CC(CO)=CC12 (stereo not drawn) [Compound 4] | 20 μM/191.200% | Antagonist/NAM | – | – |
| O=C1c2cccc(O)c2C(=O)c2c(O)cccc21 [Compound 6] | 20 μM/142.558% | Antagonist/NAM | – | – |
| CC(=O)Oc1cccc2c1C(=O)c1c(OC(C)=O)cc(C(=O)O)cc1C2=O [Compound 7] | 20 μM/195.543% | Antagonist/NAM | – | – |
| O=C(O)c1cc(O)c2c(c1)C(=O)c1cccc(O)c1C2=O [Compound 8] | 20 μM/749.225% | Antagonist/NAM | – | – |
| COc1cc(O[C@@H]2O[C@H](CO)[C@@H](O)[C@H](O)[C@H]2O)c2c(O)c(C(C)=O)c(C)cc2c1 [Compound 9] | 20 μM/107.501% | Antagonist/NAM | – | – |
| Cn1c(=O)[nH]c(=O)c2[nH]cnc21 [Compound 10] | 20 μM/152.609% | Antagonist/NAM | – | – |
| Cn1cnc2c1c(=O)[nH]c(=O)n2C [Compound 11] | 20 μM/153.003% | Antagonist/NAM | – | – |
| COC(=O)C1OC(=O)c2cc(O)c(O)c(O)c2C1C(CC(=O)O)C(=O)OC1C(COC(=O)c2ccc(O)c(O)c2)OC(OC(=O)c2cc(O)c(O)c(O)c2)C(O)C1OC(=O)c1cc(O)c(O)c(O)c1 (stereo not drawn) [Compound 12] | – | – | 100 μM/25.688% | Agonist/PAM |
| Cc1cc(O)c2c(c1)C(=O)c1cc(O)cc(O)c1C2=O [Compound 13] | – | – | 100 μM/9.870% | Agonist/PAM |
